According to US12691186B2, “B7-H3 miniproteins, conjugates, and uses thereof” (priority 2023, dated 2026):

Test system: >6,500 different human proteins
Experiment: Off-target binding, cell microarray platform (Retrogenix Assay) in HEK293 cells
Details: biotin-labeled molecules
Experimental: To evaluate potential off-target binding, eight biotin-labeled molecules were tested in a cell microarray platform (Charles River Lab, Retrogenix Assay) having >6,500 different human proteins spanning diverse functions and subcellular locations.
Initially, two pools of molecules were tested. Pool #1 consisted of C298, C300, C302, C304, and pool #2 consisted of C306, C308, C310, and C312 at 2 μg/mL for each molecule. To perform this assay, HEK293 cells were plated on a dish and localized spots of cells were transiently over-expressed with a cDNA encoding for one of the >6,500 targets. Included in this library were two isoforms of CD276 (B7-H3) and B7-H3 related proteins (B7-1, B7-2, B7-H1/PD-L1, and B7-H2). The molecule pools were incubated on the fixed, over-expressing cell microarrays (n=2 per protein), and binding was visualized using Alexa Fluor 647 streptavidin fluorescence. All transfection efficiencies exceeded minimum thresholds for the microarray expression targets. Preliminary interactions identified from pooled results were re-spotted in duplicates, and each of the eight compounds were tested individually (n=2) at 2 μg/mL and/or in dose response against these targets as described above to validate the interactions.
All positive control interactions were strong and passed quality control. Specific interactions observed (median SNR≥1) confirmed on-target B7-H3 binding in two different isoforms for each of the eight test molecules. These interactions with the primary target occurred after fixation and in live cells (absence of fixation). No significant additional interactions were confirmed for any test molecules outside of B7-H3, indicating high specificity for the primary target (data not shown).

Molecule	background binding to untransfected HEK293 cells
CC[C@H](C)[C@@H]1NC(=O)[C@H](Cc2ccccc2)NC(=O)[C@H](C)NC(=O)[C@H](CCCCNC)NC(=O)[C@H]([C@@H](C)CC)NC(=O)[C@H](CCC(N)=O)NC(=O)[C@H](C)NC(=O)[C@H](Cc2ccc(O)cc2)NC(=O)[C@H]([C@@H](C)O)NC(=O)[C@H](CC(C)C)NC(=O)[C@@H]2CSSC[C@@H](C(=O)N[C@@H](CO)C(N)=O)NC(=O)[C@H](CC(C)C)NC(=O)[C@H](CCC(=O)O)NC(=O)[C@H](CCCCNC)NC(=O)[C@H](C)NC(=O)[C@H](CCC(=O)O)NC(=O)[C@H](CO)NC(=O)[C@H](CC(C)C)NC(=O)[C@H]([C@@H](C)CC)NC(=O)[C@H](CCC(=O)O)NC(=O)[C@H](CO)NC(=O)[C@H](CO)NC(=O)[C@H](CC(N)=O)NC(=O)[C@H](CSSC[C@H](NC(=O)CCOCCOCCOCCOCCNC(=O)CCCC[C@@H]3SC[C@@H]4NC(=O)N[C@@H]43)C(=O)N[C@@H](C)C(=O)N[C@@H](CCCC[N+](C)(C)C)C(=O)N[C@@H](CCC(=O)O)C(=O)N[C@@H](CCCCN)C(=O)N[C@@H]([C@@H](C)CC)C(=O)N[C@@H](C)C(=O)N[C@@H](C)C(=O)N[C@@H](CC(C)C)C(=O)N[C@@H](CO)C(=O)N[C@@H](CCC(=O)O)C(=O)N[C@@H]([C@@H](C)CC)C(=O)N[C@@H]([C@@H](C)CC)C(=O)N[C@@H](Cc3c[nH]c4ccccc34)C(=O)N[C@@H](CC(C)C)C(=O)N3CCC[C@H]3C(=O)N2)NC(=O)[C@@H]2CCCN2C(=O)[C@H](CC(=O)O)NC(=O)[C@H](CC(=O)O)NC(=O)[C@H](CC(N)=O)NC(=O)[C@H](CC(C)C)NC(=O)[C@H](C)NC(=O)[C@H](C)NC1=O [Compound C312]	low-background binding
C298 (CAXEKIAALSEIIWLPCLTYAQIXAFIAALNDDPCQSSEILSEAKELCS; Biotin-PEG4 N-term, methylated lysines, C-amide; SITE 3 trimethyllysine; SITE 24 dimethyllysine) [Compound C298]	low-background binding
